Data: patent publication US20040152751A1, “Pyrazolidinol compounds” (priority 1999, published 2004)

Columns and labels:
HIV-1 [1] = experiment: Combination antiviral effect in HIV-1 infected MT4 cells; format: cell-based; conditions: with AZT, Indinavir, Nevirapin or ddI, FIGS. 2-5
Method: (§1) 40H—OPB was added to cultures of growing MT4 cells (a human CD4 cell line). HIV-1, stored in the culture medium at −75° C. was thawed and added in an amount which infected about 1 in 7 cells in each culture. The virus was absorbed to the cells for 2.3 hours at ambient temperature whereafter the cultures were centrifuged at 1200 rpm, the medium was removed, the cells were suspended in fresh growth medium and 40H—OPB was added to concentrations of 1, 10 and 100 μM (diluted in medium from a stock solution of 20 mM in DMSO). After 72 hours the HIV antigen concentration was determined using Abbott's test. By way of comparison phenbutazone (PB) was tested analogously.
Cell culture experiments were carried out as in Example 12, but in place of 40H—OPB (0-100 μM) was added:
i) 40H—OPB ([…]) with AZT (0-1 μM)
iii) 40H—OPB (0-100 μM) with Nevirapin (0-10 μM)

mice = experiment: Mouse toxicity; format: in vivo
Method: 20 g mice were given single doses of 40H—OPB (20 mM in DMSO) intraperitoneally. […] Furthermore, injection of 40H—OPB could be increased to 2000 mg/kg (corresponding to 20 mM in the extracellular fluid) before the mice started to die (6 out of 10 died at 2000 mg/kg).

HIV-1 [2] = experiment: Antiviral activity: HIV antigen concentration in HIV-1 infected MT4 cells; format: cell-based; conditions: MT4 cells (human CD4 cell line), 1, 10 and 100 μM, after 72 hours; FIG. 1
Method: as §1

## CCCCC1(O)C(=O)N(c2ccccc2)N(c2ccc(O)cc2)C1=O (stereo not drawn) [40H—OPB, 4-(1-Butyl)-4-hydroxy-1-(4-hydroxyphenyl)-2-phenyl-3,5-pyrazolidinedione]
HIV-1 [1]
  anti-HIV effect in combination with other anti-viral agents: enhanced anti-HIV effect
mice; mice, corresponding to 2000 mg/kg
  lethal dose expressed as concentration in the extracellular fluid: 20 mM
mice; mice, single dose intraperitoneally
  dose reached before the mice started to die (lethal dose): 2000 mg/kg
mice; mouse, in vivo, 2000 mg/kg
  factor by which concentrations that effectively inhibit HIV replication in cell cultures are lower than the lethal dose in mice: up to 200000 times
mice; mouse, in vivo, ip, 2000 mg/kg
  mice that died: 6 out of 10
HIV-1 [2]
  inhibition of virus production (HIV antigen concentration, Abbott's test): inhibition of virus production by 40H—OPB at concentrations above the lowest tested
